Reference: the supplement of paper PMC10307832

What was measured:
Experiment in all cases: relative viability (nuclei count vs DMSO), 5 days (fraction); higher = more cells survive
Idelalisib + Linsitinib = compound: CC[C@H](Nc1ncnc2[nH]cnc12)c1nc2cccc(F)c2c(=O)n1-c1ccccc1 [Idelalisib] + C[C@]1(O)C[C@@H](c2nc(-c3ccc4ccc(-c5ccccc5)nc4c3)c3c(N)nccn32)C1 [Linsitinib] (partner 1 µM)
Procedure, shortened: (§1)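 Lung cancer cell lines were seeded in 1536-well plates and dosed by pin tool the next day, with either a single drug or a fixed anchor-drug dose combined with five library-drug doses (not always all listed) spaced in √10 steps. Five days later, one step fixed the cells and stained their nuclei (final 0.05% Triton X-100, 1% formaldehyde, 1 ug/ml Hoechst), and nuclei were counted on 4× images. Relative viability is the nuclei count in treated wells divided by the count in vehicle wells, and each value is the median of duplicate plates.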

Idelalisib + Bortezomib = compound: CC[C@H](Nc1ncnc2[nH]cnc12)c1nc2cccc(F)c2c(=O)n1-c1ccccc1 [Idelalisib] + CC(C)C[C@H](NC(=O)[C@H](Cc1ccccc1)NC(=O)c1cnccn1)B(O)O [Bortezomib] (partner 0.002 µM)
Procedure, shortened: as §1

Idelalisib + Pictilisib = compound: CC[C@H](Nc1ncnc2[nH]cnc12)c1nc2cccc(F)c2c(=O)n1-c1ccccc1 [Idelalisib] + CS(=O)(=O)N1CCN(Cc2cc3nc(-c4cccc5[nH]ncc45)nc(N4CCOCC4)c3s2)CC1 [Pictilisib] (partner 1 µM)
Procedure, shortened: as §1

Pemetrexed + AZD7762 = compound: Nc1nc2[nH]cc(CCc3ccc(C(=O)N[C@@H](CCC(=O)O)C(=O)O)cc3)c2c(=O)[nH]1 [Pemetrexed] + NC(=O)Nc1cc(-c2cccc(F)c2)sc1C(=O)N[C@H]1CCCNC1 [AZD7762] (partner 0.2 µM)
Procedure, shortened: as §1

Cell Line | relative viability (Idelalisib + Linsitinib; first compound 0.04 µM) | relative viability (Idelalisib + Linsitinib; first compound 0.1265 µM) | relative viability (Idelalisib + Linsitinib; first compound 0.4 µM) | relative viability (Idelalisib + Linsitinib; first compound 1.265 µM) | relative viability (Idelalisib + Linsitinib; first compound 4 µM) | relative viability (Idelalisib + Bortezomib; first compound 0.04 µM) | relative viability (Idelalisib + Bortezomib; first compound 0.1265 µM) | relative viability (Idelalisib + Bortezomib; first compound 0.4 µM) | relative viability (Idelalisib + Bortezomib; first compound 1.265 µM) | relative viability (Idelalisib + Bortezomib; first compound 4 µM) | relative viability (Idelalisib + Pictilisib; first compound 0.04 µM) | relative viability (Idelalisib + Pictilisib; first compound 0.1265 µM) | relative viability (Idelalisib + Pictilisib; first compound 0.4 µM) | relative viability (Idelalisib + Pictilisib; first compound 1.265 µM) | relative viability (Idelalisib + Pictilisib; first compound 4 µM) | relative viability (Pemetrexed + AZD7762; first compound 0.002 µM) | relative viability (Pemetrexed + AZD7762; first compound 0.006325 µM) | relative viability (Pemetrexed + AZD7762; first compound 0.02 µM) | relative viability (Pemetrexed + AZD7762; first compound 0.06325 µM) | relative viability (Pemetrexed + AZD7762; first compound 0.2 µM)
NCI-H1755 | 1.01 | 0.959 | 0.947 | 0.907 | 0.786 | 0.931 | 0.939 | 0.937 | 1.05 | 0.85 | 0.444 | 0.466 | 0.358 | 0.41 | 0.372 | 0.42 | 0.453 | 0.483 | 0.393 | 0.295
NCI-H23 | 0.693 | 0.592 | 0.436 | 0.499 | 0.474 | 1.05 | 0.986 | 0.771 | 1.07 | 0.959 | 0.689 | 0.489 | 0.381 | 0.451 | 0.462 | 0.253 | 0.231 | 0.232 | 0.235 | 0.245
HCC-366 | 0.619 | 0.598 | 0.444 | 0.578 | 0.253 | 1 | 1.11 | 1 | 1.03 | 0.931 | 0.138 | 0.177 | 0.0975 | 0.165 | 0.146 | 0.228 | 0.239 | 0.308 | 0.254 | 0.158
LCLC-97TM1 | 0.209 | 0.184 | – | 0.175 | 0.156 | 0.357 | 0.76 | – | 0.569 | 0.835 | 0.236 | 0.182 | – | 0.231 | 0.152 | 0.338 | 0.164 | 0.273 | 0.243 | 0.127
EMC-BAC-2 | 0.868 | 0.8 | 0.757 | 0.818 | 0.748 | 1.12 | 1.15 | 1.05 | 1.13 | 1.04 | 0.563 | 0.569 | 0.475 | 0.59 | 0.492 | 1.1 | 0.944 | 1.14 | 0.948 | 0.69
NCI-H441 | 0.43 | 0.437 | – | 0.438 | 0.41 | 0.406 | 0.453 | – | 0.608 | 0.37 | 0.522 | 0.451 | – | 0.375 | 0.393 | 1.12 | 1.1 | 1.11 | 1.03 | 0.291
LCLC-103H | 1.11 | 0.948 | 0.886 | 1.05 | 0.704 | 1.07 | 1.24 | 1.04 | 1.04 | 0.911 | 0.756 | 0.63 | 0.517 | 0.586 | 0.574 | 0.642 | 0.774 | 0.792 | 0.775 | 0.695
HOP-62 | 1.04 | 1.04 | – | 1.07 | 0.884 | 0.72 | 0.796 | – | 0.797 | 0.997 | 0.883 | 0.712 | – | 0.649 | 0.792 | 0.485 | 0.534 | 0.45 | 0.762 | 0.483
NCI-H1355 | 0.893 | 0.789 | 0.599 | 0.701 | 0.596 | 1.26 | 1.29 | 0.987 | 1.23 | 1.17 | 0.521 | 0.501 | 0.4 | 0.376 | 0.449 | 0.732 | 0.838 | 0.771 | 0.794 | 0.808
HCC-44 | 0.662 | 0.65 | 0.596 | 0.476 | 0.584 | 0.825 | 0.946 | 0.908 | 0.984 | 0.825 | 0.679 | 0.646 | 0.526 | 0.59 | 0.591 | 0.928 | 1.01 | 0.991 | 1.03 | 0.944
A-427 | 1.08 | 0.896 | 1.08 | 1.13 | 1.05 | 1.03 | 0.903 | 0.883 | 1.05 | 0.913 | 0.871 | 0.789 | 0.826 | 0.743 | 0.724 | 0.798 | 0.708 | 0.818 | 0.755 | 0.733
LXF-289 | 1 | 0.978 | 0.938 | 1.07 | 0.978 | 1.08 | 0.925 | 0.995 | 1.05 | 1.04 | 0.894 | 0.78 | 0.722 | 0.873 | 0.745 | 1.06 | 1.02 | 1.14 | 1.09 | 1.02
NCI-H2087 | 0.937 | 1.04 | 1.09 | 1.06 | 0.728 | 0.765 | 1.01 | 0.787 | 1.07 | 0.671 | 0.989 | 0.743 | 0.853 | 0.907 | 0.904 | 1.2 | 1.22 | 1.44 | 1.3 | 0.799
CAL-12T | 0.823 | 0.906 | 0.733 | 0.822 | 0.584 | 1.08 | 1.12 | 0.856 | 1.24 | 0.936 | 0.382 | 0.47 | 0.257 | 0.43 | 0.417 | 0.562 | 0.685 | 0.782 | 0.579 | 0.543
NCI-H596 | 1.07 | 1.06 | 0.899 | 1.19 | 1.03 | 1 | 1.04 | 1 | 1.03 | 0.802 | 0.412 | 0.402 | 0.389 | 0.405 | 0.65 | 1.17 | 1.1 | 1.07 | 0.472 | 0.362
PC-14 | 0.971 | 0.978 | 0.929 | 0.97 | 0.901 | 0.913 | 0.996 | 0.947 | 0.982 | 0.814 | 0.765 | 0.788 | 0.705 | 0.688 | 0.506 | 0.297 | 0.371 | 0.35 | 0.218 | 0.114
